Converted amounts (≈) assume the structure as drawn. Where two headings read alike, the source gives them in different places.
Tests used:
[1] = test system: bloodstream-form trypanosome T. brucei brucei 427 strain; assay: Trypanosoma brucei brucei high-throughput in vitro drug sensitivity assay (resazurin); assay type: cell-based; details: Trypanosoma brucei
[2] = L929 cytotoxicity evaluation (resazurin); assay type: cell-based; details: mouse, L929 mouse fibroblast cells; 72 hrs incubation; read-out: Cytotox L-929 IC50
Procedure: For evaluation of compound effects on mammalian cells, L929 mouse fibroblast cells were used. Cells were maintained as adherent cultures in T-25 vented cap flasks in a humidified incubator at 37° C. in the presence of 5% CO2. Culture media was D-MEM supplemented with 10% fetal bovine serum and 1% penicillin/streptomycin. L929 cells were maintained below confluent levels by sub-culturing at 1:10 dilution twice weekly using 0.05% trypsin for detachment.
Sub-confluent L929 cells were trypsinized, resuspended in fresh media and 10 uL was counted using hemocytometer to determine cell concentration. Cells were diluted to 1×10^4/mL in DMEM, dispensed (100 uL) into 96-well plates using a Multidrop 384 dispenser and allowed to attach overnight. Spent media was replaced with 99.5 uL fresh D-MEM and compounds to be tested were serially diluted in DMSO and 0.5 uL added using a Biomek NX liquid handler. Plates were incubated with compounds for 72 hrs at 37° C. with 5% CO2. Resazurin (20 uL of 12.5 mg/ml stock) from Sigma-Aldrich was added to each well and plates were incubated for an additional 3-4 hrs. Assay plates were read using an EnVision plate reader at an excitation wavelength of 544 nm and emission of 590 nm. Single data points were used to generate sigmoidal dose response curves and determine IC50 values using XLfit curve fitting software from IDBS (Guildford, UK).

[3] = 72 hrs incubation, read-out: T.b. brucei IC50

SMILES	IC50 [1, 3] [µg/mL]	IC50 at 72 h [2] [µg/mL]	IC50 ([1]; 72 h, read-out: T.b. brucei IC50 (ug/mL)) [µg/mL]
CC1(C)OB(O)c2cc(NC(=O)c3cc(F)ccc3C(F)(F)F)ccc21 [compound 88, 5-Fluoro-N-(1-hydroxy-3,3-dimethyl-1,3-dihydro-benzo[c][1,2]oxaborol-6-yl)-2-trifluoromethyl-benzamide]	0.313 (≈ 0.853 µM)	> 10	–
Cc1ccc(C(=O)Nc2ccc3c(c2)B(O)OC3(C)C)c(Cl)c1 [compound 89, 2-Chloro-N-(1-hydroxy-3,3-dimethyl-1,3-dihydro-benzo[c][1,2]oxaborol-6-yl)-4-methyl-benzamide]	0.152 (≈ 0.461 µM)	> 10	–
CC1(C)OB(O)c2cc(NC(=O)c3cc(C(F)(F)F)ccc3Cl)ccc21 [compound 90, 2-Chloro-N-(1-hydroxy-3,3-dimethyl-1,3-dihydro-benzo[c][1,2]oxaborol-6-yl)-5-trifluoromethyl-benzamide]	0.514 (≈ 1.34 µM)	> 10	–
Cc1cc(Br)ccc1C(=O)Nc1ccc2c(c1)B(O)OC2(C)C [compound 91]	0.786 (≈ 2.1 µM)	> 10	–
CC1(C)OB(O)c2cc(NC(=O)c3cc([N+](=O)[O-])ccc3Cl)ccc21 [compound 92]	0.158 (≈ 0.438 µM)	2.68 (≈ 7.43 µM)	–
CC1(C)OB(O)c2cc(NC(=O)c3ccc([N+](=O)[O-])cc3Cl)ccc21 [compound 93]	0.197 (≈ 0.546 µM)	> 10	–
COc1ccc(C(=O)Nc2ccc3c(c2)B(O)OC3(C)C)c(OC)c1 [compound 94]	0.4 (≈ 1.17 µM)	> 10	–
COc1ccc(C(=O)Nc2ccc3c(c2)B(O)OC3(C)C)cc1C [compound 95, N-(1-Hydroxy-3,3-dimethyl-1,3-dihydro-benzo[c][1,2]oxaborol-6-yl)-4-methoxy-3-methyl-benzamide]	0.86 (≈ 2.64 µM)	> 10	–
COc1cccc(OC)c1C(=O)Nc1ccc2c(c1)B(O)OC2(C)C [compound 96, N-(1-Hydroxy-3,3-dimethyl-1,3-dihydro-benzo[c][1,2]oxaborol-6-yl)-2,6-dimethoxy-benzamide]	2.72 (≈ 7.97 µM)	> 10	–
C=Cc1ccc(C(=O)Nc2ccc3c(c2)B(O)OC3(C)C)c(Cl)c1 [compound 97, 2-Chloro-N-(1-hydroxy-3,3-dimethyl-1,3-dihydro-benzo[c][1,2]oxaborol-6-yl)-4-vinyl-benzamide]	–	> 10	0.05 (≈ 0.146 µM)
C=CCc1ccc(C(=O)Nc2ccc3c(c2)B(O)OC3(C)C)c(Cl)c1 [compound 98, 4-Allyl-2-chloro-N-(1-hydroxy-3,3-dimethyl-1,3-dihydro-benzo[c][1,2]oxaborol-6-yl)-benzamide]	0.091 (≈ 0.256 µM)	> 10	–
CC(C)=Cc1ccc(C(=O)Nc2ccc3c(c2)B(O)OC3(C)C)c(Cl)c1 [compound 99, 2-Chloro-N-(1-hydroxy-3,3-dimethyl-1,3-dihydro-benzo[c][1,2]oxaborol-6-yl)-4-(2-methyl-propenyl)-benzamide]	0.19 (≈ 0.514 µM)	8.6 (≈ 23.3 µM)	–
C=C(C)c1ccc(C(=O)Nc2ccc3c(c2)B(O)OC3(C)C)c(Cl)c1 [compound 100, 2-Chloro-N-(1-hydroxy-3,3-dimethyl-1,3-dihydro-benzo[c][1,2]oxaborol-6-yl)-4-isopropenyl-benzamide]	0.077 (≈ 0.217 µM)	9.55 (≈ 26.9 µM)	–
CCCc1ccc(C(=O)Nc2ccc3c(c2)B(O)OC3(C)C)c(Cl)c1 [compound 102, 2-Chloro-N-(1-hydroxy-3,3-dimethyl-1,3-dihydro-benzo[c][1,2]oxaborol-6-yl)-4-propyl-benzamide]	0.125 (≈ 0.35 µM)	> 10	–
CC(C)Cc1ccc(C(=O)Nc2ccc3c(c2)B(O)OC3(C)C)c(Cl)c1 [compound 103]	0.184 (≈ 0.495 µM)	> 10	–
CC1(C)OB(O)c2cc(NC(=O)c3c(F)ccc(F)c3Cl)ccc21 [compound 104, 2-Chloro-3,6-difluoro-N-(1-hydroxy-3,3-dimethyl-1,3-dihydro-benzo[c][1,2]oxaborol-6-yl)-benzamide]	1.12 (≈ 3.19 µM)	> 10	–
CC1(C)OB(O)c2cc(NC(=O)c3c(Cl)cc(Cl)cc3Cl)ccc21 [compound 105, 2,4,6-Trichloro-N-(1-hydroxy-3,3-dimethyl-1,3-dihydro-benzo[c][1,2]oxaborol-6-yl)-benzamide]	0.788 (≈ 2.05 µM)	> 10	–
COc1cc(C(=O)Nc2ccc3c(c2)B(O)OC3(C)C)cc(OC)c1OC [compound 106, N-(1-Hydroxy-3,3-dimethyl-1,3-dihydro-benzo[c][1,2]oxaborol-6-yl)-3,4,5-trimethoxy-benzamide]	> 5	> 10	–

SMILES	IC50 [1, 3] [µg/mL]	IC50 at 72 h [2] [µg/mL]	IC50 ([1]; 72 h, read-out: T.b. brucei IC50 (ug/mL)) [µg/mL]
Cc1ccc(Cl)c(C(=O)Nc2ccc3c(c2)B(O)OC3(C)C)c1F [compound 108, 6-Chloro-2-fluoro-N-(1-hydroxy-3,3-dimethyl-1,3-dihydro-benzo[c][1,2]oxaborol-6-yl)-3-methyl-benzamide]	0.378 (≈ 1.09 µM)	> 10	–
CC1(C)OB(O)c2cc(NC(=O)c3c(C(F)(F)F)ccc(Cl)c3F)ccc21 [compound 109, 3-Chloro-2-fluoro-N-(1-hydroxy-3,3-dimethyl-1,3-dihydro-benzo[c][1,2]oxaborol-6-yl)-6-trifluoromethyl-benzamide]	0.379 (≈ 0.944 µM)	> 10	–
CC1(C)OB(O)c2cc(NC(=O)c3c(F)c(F)c(F)c(F)c3F)ccc21 [compound 110, 2,3,4,5,6-Pentafluoro-N-(1-hydroxy-3,3-dimethyl-1,3-dihydro-benzo[c][1,2]oxaborol-6-yl)-benzamide]	> 5	> 10	–
CC1(C)OB(O)c2cc(NC(=O)c3cccc4ccccc34)ccc21 [compound 111, Naphthalene-1-carboxylic acid (1-hydroxy-3,3-dimethyl-1,3-dihydro-benzo[c][1,2]oxaborol-6-yl)-amide]	1.23 (≈ 3.71 µM)	> 10	–
CC1(C)OB(O)c2cc(NC(=O)c3cccc4cccnc34)ccc21 [compound 113, Quinoline-8-carboxylic acid (1-hydroxy-3,3-dimethyl-1,3-dihydro-benzo[c][1,2]oxaborol-6-yl)-amide]	> 5	> 10	–
CC1(C)OB(O)c2cc(NC(=O)c3cccnc3)ccc21 [compound 115, N-(1-Hydroxy-3,3-dimethyl-1,3-dihydro-benzo[c][1,2]oxaborol-6-yl)-nicotinamide]	> 5	> 10	–
CC1(C)OB(O)c2cc(NC(=O)c3ccncc3)ccc21 [compound 116, N-(1-Hydroxy-3,3-dimethyl-1,3-dihydro-benzo[c][1,2]oxaborol-6-yl)-isonicotinamide]	> 5	> 10	–
CC1(C)OB(O)c2cc(NC(=O)c3ccc4ccccc4n3)ccc21 [compound 117, Quinoline-2-carboxylic acid (1-hydroxy-3,3-dimethyl-1,3-dihydro-benzo[c][1,2]oxaborol-6-yl)-amide]	1.55 (≈ 4.67 µM)	> 10	–
Cc1ccc(C(=O)Nc2ccc3c(c2)B(O)OC3(C)C)c(Cl)n1 [compound 118]	0.814 (≈ 2.46 µM)	> 10	–
CC1(C)OB(O)c2cc(NC(=O)c3cnccn3)ccc21 [compound 119, Pyrazine-2-carboxylic acid (1-hydroxy-3,3-dimethyl-1,3-dihydro-benzo[c][1,2]oxaborol-6-yl)-amide]	> 5	> 10	–
CC1(C)OB(O)c2cc(NC(=O)c3ccoc3)ccc21 [compound 120, Furan-3-carboxylic acid (1-hydroxy-3,3-dimethyl-1,3-dihydro-benzo[c][1,2]oxaborol-6-yl)-amide]	> 5	> 10	–
Cc1occc1C(=O)Nc1ccc2c(c1)B(O)OC2(C)C [compound 121, 2-Methyl-furan-3-carboxylic acid (1-hydroxy-3,3-dimethyl-1,3-dihydro-benzo[c][1,2]oxaborol-6-yl)-amide]	3.2 (≈ 11.2 µM)	> 10	–
Cc1cc(C(=O)Nc2ccc3c(c2)B(O)OC3(C)C)c(C)o1 [compound 122, 2,5-Dimethyl-furan-3-carboxylic acid (1-hydroxy-3,3-dimethyl-1,3-dihydro-benzo[c][1,2]oxaborol-6-yl)-amide]	> 5	> 10	–
CC1(C)OB(O)c2cc(NC(=O)c3cc[nH]n3)ccc21 [compound 123, 1H-Pyrazole-3-carboxylic acid (1-hydroxy-3,3-dimethyl-1,3-dihydro-benzo[c][1,2]oxaborol-6-yl)-amide]	> 5	> 10	–
CC1(C)OB(O)c2cc(NC(=O)c3cccs3)ccc21 [compound 124, Thiophene-2-carboxylic acid (1-hydroxy-3,3-dimethyl-1,3-dihydro-benzo[c][1,2]oxaborol-6-yl)-amide]	2.7 (≈ 9.4 µM)	> 10	–
CC1(C)OB(O)c2cc(NC(=O)Cc3cccs3)ccc21 [compound 125, N-(1-Hydroxy-3,3-dimethyl-1,3-dihydro-benzo[c][1,2]oxaborol-6-yl)-2-thiophen-2-yl-acetamide]	> 5	> 10	–
CC1(C)OB(O)c2cc(NC(=O)C3CC3)ccc21 [compound 126, Cyclopropanecarboxylic acid (1-hydroxy-3,3-dimethyl-1,3-dihydro-benzo[c][1,2]oxaborol-6-yl)-amide]	> 5	> 10	–

— patent publication US20110190235A1, “BORON-CONTAINING SMALL MOLECULES AS ANTIPROTOZOAL AGENTS” (Anacor Pharmaceuticals, Inc., priority 2009, published 2011)
